Test results reported in patent US10966959B2, “Use of a rotifer-derived compound and its analogs for preventing schistosomiasis” (Wisconsin Alumni Research Foundation, priority 2018, dated 2021).
“Also recorded” adds a separate entry of the source.

Experiments:
[1] = test system: S. mansoni cercariae; experiment: Mouse infection experiment (mouse tail exposure to drug-treated cercariae); assay type: in vivo; details: for liver granulomas / schistosome eggs in histological liver sections / adult worms recovered from infected mice: six weeks post infection
Protocol: Mouse Infection Experiment
Mouse infections were performed by exposing mouse tails to S. mansoni cercariae according to standard protocol from BRI with slight modifications (see Lewis et al., Curr. Protoc. Immunol., 2001, Chapter 19). Briefly, we secured mice in rodent restrainers (Thomas Scientific, Cat #551-BSRR) and put them vertically on top of a rack with grids. We pipetted 100 μL of each drug in proper concentration into a skinny glass tube (Fisher Scientific, Cat #14-958A) inside a 12×75 mm holding glass tube (VWR, Cat #47729-570). 300 μL of APW containing ˜200 cercariae were pipetted into each skinny tube and incubated for 10 mins before we inserted mouse tail. Mouse tails were wiped with APW-moistened Kimwipes, inserted into the skinny tube, and exposed to cercariae for 30 mins. We sacrificed and perfused these mice six week-post infection. For each drug, we initially used three mice for controls (APW only) and three mice for each concentration tested except for 25 nM Ht-13-A and Ht-13-A-pr. We then repeated the experiments again with three mice for each condition. In addition, we included six mice for 25 nM Ht-13-A and Ht-13-A-pr so that we had six biological replicates total for each condition.
Adult worms were recovered by hepatic portal vein perfusion and briefly incubated in 2.5% Tricaine (Sigma) to separate males and females. We counted total numbers of adult worms under a stereomicroscope (Leica MZ75, Leica Microsystems). Livers from infected mice were fixed in 4% formaldehyde in PBS overnight. Largest liver lobes (left lobe) were submitted to University of Wisconsin-Madison Histology Core Facility for sectioning and Hematoxylin and Eosin staining. Each left lobe was evenly cut into 4-6 pieces and paraffin embedded on a large cassette. One slide (4-6 liver sections) for each liver was used for histological examination, which provided a representative view throughout the whole liver lobe. We took a tiled image of the whole slide using a Zeiss Axio Zoom microscope and used ImageJ (National Institutes of Health, Bethesda, Md.) to determine the area of each section. Total numbers of eggs in each section were counted and normalized to the area.
To determine if SPF-induced paralysis could prevent infection, ˜200 cercariae were treated with different concentrations of SPF (25 nM, 250 nM, and 2.5 μM) for 10 min followed by a 30 min mouse tail infection (N=6 for each condition). Six-weeks post infection, the mice were euthanized, hepatic portal vein perfusion was performed, recovered schistosomes were counted, and mouse liver pathology was examined. In the control group, 83 adult worms were recovered on average (FIG. 2(A)). Livers from these mice appeared dark in color and had extensive granuloma formation (FIG. 2(A)). […] Without wishing to be bound by theory, it is possible that mechanical and/or chemical stimuli from mouse tails may overcome the SPF-induced paralytic effects at low SPF concentrations.

[2] = test system: S. mansoni cercariae; experiment: Cercarial paralysis assay; assay type: cell-based
Protocol: Infected B. glabrata snails provided by Biomedical Research Institute (BRI, Rockville, Md.) were maintained in artificial pond water and fed Layer Crumbles (chicken feed) (Rural King, Mattoon, Ill.). To obtain S. mansoni cercariae, B. glabrata snails were exposed to light at 26° C. for 1-2 hrs. Artificial pond water containing cercariae was passed through 100 μm cell strainer (Falcon, Corning Inc., Corning, N.Y.) to remove snail food and feces. Cercariae were then collected using custom-made 20 μm cell strainers.
Cercarial Paralysis Assay
To capture the whole field while avoiding excess reflected light in a well, we used the lid of 96-well plate (Costar, Corning Inc., Corning, N.Y.). 40 μL of artificial pond water containing ˜50 cercariae were added to each shallow well on the lid. 10 μL of SPF (dissolved in APW) was then added to reach the final concentration indicated. Using a high-speed camera (Olympus i-SPEED TR), attached to a stereomicroscope (Leica MZ125, Leica Microsystems, Wetzlar, Germany), we recorded cercariae movement at 20-60 fps at 1.25× magnification just prior to addition of test compounds until 3-4 minutes after treatment started. Raw movies were converted to .avi files using i-SPEED Viewer and compressed into JPEG format using ImageJ (addition of compound is considered time 0). We then counted the numbers of free swimming/paralyzed cercariae every 5 seconds for 1 minute and every 30 seconds thereafter for 3 minutes. The number of dead cercariae (those that never swim before and after SPF treatment) were subtracted from data. Experiments were performed in triplicate.
To determine if cercariae react to SPF or other analogs in a dose-dependent manner, serial dilutions of SPF were made in APW. To quantify the paralysis effect of SPF, the movement of the cercariae was recorded, as well as the number of free-swimming and non-swimming cercariae. In the absence of SPF, over 82% of cercariae were free-swimming over three minutes (FIG. 1(A)). In the presence of 2.5 nM SPF, the percentage of free-swimming cercariae dropped to 67% at three minutes post drug treatment. As the concentration of SPF increased, the rate of paralysis increased, and more cercariae were paralyzed at the end of the treatment.

COc1ccc2[nH]cc3c2c1OC1C(C)CN(C)C1C3 (centres unmarked) [SPF, 5-methoxy-7,9-dimethyl-6a,7,8,9,9a,10-hexahydro-2H-pyrrolo[2′,3′:6,7]oxepino[4,3,2-cd]indole]
effect on mouse infection ([1]; 25 nM): not as severe | blocking / inhibition of infection ([1]; 250 nM): complete inhibition of infection | liver granulomas ([1]; 250 nM): no granulomas were observed | schistosome eggs in histological liver sections ([1]; 250 nM): clear of schistosome eggs | blocking / inhibition of infection ([1]; 2.5 μM): complete inhibition of infection | liver granulomas ([1]; 2.5 μM): no granulomas were observed | schistosome eggs in histological liver sections ([1]; 2.5 μM): clear of schistosome eggs | adult worms recovered from infected mice ([1]; cercariae treated with 250 nM for 10 min): no adult worms could be recovered | adult worms recovered from infected mice ([1]; cercariae treated with 2.5 μM for 10 min): no adult worms could be recovered | liver appearance (post perfusion) ([1]; higher concentrations of drug treatment): normal morphologies with few or no granulomas | liver appearance (post perfusion) ([1]; lower concentrations of drug): darker in color and contained more granulomas | percentage of free-swimming cercariae ([2]; 2.5 nM, three minutes post drug treatment): 67% | paralytic effect on cercariae ([2]; 25 nM, in vitro): could paralyze most cercariae | paralytic effect on cercariae ([2]; 250 nM): maximum paralytic effect; also recorded: full paralysis | time until majority of cercariae paralyzed ([2]; 250 nM): ≤ 30 s | paralytic effect on cercariae ([2]; 2.5 μM): maximum paralytic effect; also recorded: full paralysis | time until majority of cercariae paralyzed ([2]; 2.5 μM): ≤ 30 s
